Data: ChEMBL document CHEMBL4261654, “Synthesis and in vitro antitumor activity of novel alkenyl derivatives of pyridoxine, bioisosteric analogs of feruloyl methane” (Bioorg Med Chem, 2018)
Calls of active or inactive are those of the source. The rule behind the calls is not given here.

Columns and labels:
MCF7 [1] = experiment: Antiproliferative activity against human MCF7 cells after 72 hrs by MTT assay; type: functional, cell-based; conditions: MCF7, 72 h
HEK293 = experiment: Antiproliferative activity against human HEK293 cells after 72 hrs by MTT assay; type: cell-based; conditions: HEK293, 72 h
[2] = Antioxidant activity assessed as ferric ion reducing activity at 20 to 320 umol after 20 mins by FRAP assay; type: functional
PC-3 [3] = experiment: Cell cycle arrest in human PC3 cells assessed as accumulation at G2/M phase at 10 uM after 72 hrs by RNase/propidium iodide staining-based flow cytometric analysis (reference value: 20 +/- 3%); type: functional
A498 [4] = experiment: Antiproliferative activity against human A498 cells after 72 hrs by MTT assay; type: functional, cell-based; conditions: A498, 72 h
NCI-H322M [5] = experiment: Antiproliferative activity against human NCI-H322M cells after 72 hrs by MTT assay; type: functional, cell-based
PC-3 [6] = experiment: Antimigratory activity in human PC3 cells at 10 uM measured during 120 hrs each 15 mins by RTCA DP based cellular impedance analysis; type: functional
MCF7 [7] = experiment: Potency index, ratio of compound IC50 to dehydrozingerone IC50 for antiproliferative activity against human MCF7 cells; type: functional
M14 [8] = experiment: Potency index, ratio of compound IC50 to dehydrozingerone IC50 for antiproliferative activity against human M14 cells; type: functional
[9] = Antiproliferative activity against HSF cells after 72 hrs by MTT assay; type: cell-based; conditions: Homo sapiens
PC-3 [10] = experiment: Induction of apoptosis in human PC3 cells assessed as late apoptotic cells at 10 uM after 24 hrs by Annexin V-PE/7-AAD staining-based flow cytometric analysis (reference value: 8%); type: functional
OVCAR-4 [11] = experiment: Antiproliferative activity against human OVCAR4 cells after 72 hrs by MTT assay; type: functional, cell-based; conditions: OVCAR-4, 72 h
PC-3 [12] = experiment: Antiproliferative activity against human PC3 cells after 72 hrs by MTT assay; type: functional, cell-based; conditions: PC-3, 72 h
A498 [13] = experiment: Potency index, ratio of compound IC50 to dehydrozingerone IC50 for antiproliferative activity against human A498 cells; type: functional
[14] = Selectivity index, ratio of IC50 for HSF cells to IC50 for human MCF7 cells; type: toxicity; conditions: HSF cells versus MCF7 cells, read-out: Ratio IC50
OVCAR-4 [15] = experiment: Potency index, ratio of compound IC50 to dehydrozingerone IC50 for antiproliferative activity against human OVCAR4 cells; type: functional
PC-3 [16] = experiment: Induction of apoptosis in human PC3 cells assessed as late apoptotic cells at 30 uM after 24 hrs by Annexin V-PE/7-AAD staining-based flow cytometric analysis (reference value: 8%); type: functional
HCT-15 [17] = experiment: Potency index, ratio of compound IC50 to dehydrozingerone IC50 for antiproliferative activity against human HCT15 cells; type: functional
SNB-19 [18] = experiment: Antiproliferative activity against human SNB19 cells after 72 hrs by MTT assay; type: functional, cell-based; conditions: SNB-19, 72 h
PC-3 [19] = experiment: Induction of apoptosis in human PC3 cells assessed as early apoptotic cells at 30 uM after 24 hrs by Annexin V-PE/7-AAD staining-based flow cytometric analysis (reference value: 2%); type: functional
PC-3 [20] = experiment: Cell cycle arrest in human PC3 cells assessed as accumulation at S phase at 10 uM after 72 hrs by RNase/propidium iodide staining-based flow cytometric analysis (reference value: 17 +/- 1%); type: functional
PC-3 [21] = experiment: Induction of apoptosis in human PC3 cells assessed as viable cells at 30 uM after 24 hrs by Annexin V-PE/7-AAD staining-based flow cytometric analysis (reference value: 70%); type: functional; conditions: PC-3, 24 h, read-out: Activity
PC-3 [22] = experiment: Cell cycle arrest in human PC3 cells assessed as accumulation at S phase at 2 uM after 72 hrs by RNase/propidium iodide staining-based flow cytometric analysis (reference value: 17 +/- 1%); type: functional
NCI-H322M [23] = experiment: Potency index, ratio of compound IC50 to dehydrozingerone IC50 for antiproliferative activity against human NCI-H322M cells; type: functional
PC-3 [24] = experiment: Induction of mitochondrial membrane potential loss in human PC3 cells assessed as fluorescence intensity at 20 uM after 24 hrs by TMRE dye-based flow cytometric analysis (reference value: 10101 +/- 853); type: functional
PC-3 [25] = experiment: Induction of apoptosis in human PC3 cells assessed as necrotic cells at 10 uM after 24 hrs by Annexin V-PE/7-AAD staining-based flow cytometric analysis (reference value: 14%); type: functional
PC-3 [26] = experiment: Antiproliferative activity in human PC3 cells at 10 uM measured after 120 hrs measured each 15 mins by RTCA DP based cellular impedance analysis; type: functional
[27] = Ratio of compound IC50 to dehydrozingerone IC50 for antiproliferative activity against HSF cells; type: cell-based; conditions: human, read-out: Ratio IC50
MDA-MB-231 [28] = experiment: Potency index, ratio of compound IC50 to dehydrozingerone IC50 for antiproliferative activity against human MDA-MB-231 cells; type: functional
PC-3 [29] = experiment: Induction of apoptosis in human PC3 cells assessed as viable cells at 10 uM after 24 hrs by Annexin V-PE/7-AAD staining-based flow cytometric analysis (reference value: 70%); type: functional; conditions: PC-3, 24 h, read-out: Activity
PC-3 [30] = experiment: Induction of apoptosis in human PC3 cells assessed as necrotic cells at 30 uM after 24 hrs by Annexin V-PE/7-AAD staining-based flow cytometric analysis (reference value: 14%); type: functional
PC-3 [31] = experiment: Induction of mitochondrial membrane potential loss in human PC3 cells assessed as fluorescence intensity at 10 uM after 24 hrs by TMRE dye-based flow cytometric analysis (reference value: 10101 +/- 853); type: functional
PC-3 [32] = experiment: Cell cycle arrest in human PC3 cells assessed as accumulation at G0/G1 phase at 2 uM after 72 hrs by RNase/propidium iodide staining-based flow cytometric analysis (reference value: 61 +/- 3%); type: functional
PC-3 [33] = experiment: Antimigratory activity in human PC3 cells at 2 uM measured during 120 hrs each 15 mins by RTCA DP based cellular impedance analysis; type: functional
PC-3 [34] = experiment: Induction of apoptosis in human PC3 cells assessed as intracellular ROS levels by measuring fluoresence intensity at 10 uM after 24 hrs by DCFH-DA staining-based flow cytometric analysis (reference value: 3176 +/- 398); type: functional
PC-3 [35] = experiment: Induction of apoptosis in human PC3 cells assessed as early apoptotic cells at 10 uM after 24 hrs by Annexin V-PE/7-AAD staining-based flow cytometric analysis (reference value: 2%); type: functional
HCT-15 [36] = experiment: Antiproliferative activity against human HCT15 cells after 72 hrs by MTT assay; type: functional, cell-based; conditions: HCT-15, 72 h
HCT-116 [37] = experiment: Antiproliferative activity against human HCT116 cells after 72 hrs by MTT assay; type: functional, cell-based; conditions: HCT-116, 72 h
MDA-MB-231 [38] = experiment: Antiproliferative activity against human MDA-MB-231 cells after 72 hrs by MTT assay; type: functional, cell-based; conditions: MDA-MB-231, 72 h
SNB-19 [39] = experiment: Potency index, ratio of compound IC50 to dehydrozingerone IC50 for antiproliferative activity against human SNB19 cells; type: functional
PC-3 [40] = experiment: Cell cycle arrest in human PC3 cells assessed as accumulation at G0/G1 phase at 10 uM after 72 hrs by RNase/propidium iodide staining-based flow cytometric analysis (reference value: 61 +/- 3%); type: functional
PC-3 [41] = experiment: Potency index, ratio of compound IC50 to dehydrozingerone IC50 for antiproliferative activity against human PC3 cells; type: functional
PC-3 [42] = experiment: Cell cycle arrest in human PC3 cells assessed as accumulation at G2/M phase at 2 uM after 72 hrs by RNase/propidium iodide staining-based flow cytometric analysis (reference value: 20 +/- 3%); type: functional
PC-3 [43] = experiment: Antimigratory activity in human PC3 cells at 0.2 uM measured during 120 hrs each 15 mins by RTCA DP based cellular impedance analysis; type: functional
PC-3 [44] = experiment: Antiproliferative activity in human PC3 cells at 0.2 to 2 uM measured during 120 hrs each 15 mins by RTCA DP based cellular impedance analysis; type: functional, cell-based
PC-3 [45] = experiment: Induction of mitochondrial membrane potential loss in human PC3 cells assessed as fluorescence intensity at 30 uM after 24 hrs by TMRE dye-based flow cytometric analysis (reference value: 10101 +/- 853); type: functional
PC-3 [46] = experiment: Induction of apoptosis in human PC3 cells assessed as intracellular ROS levels by measuring fluoresence intensity at 20 uM after 24 hrs by DCFH-DA staining-based flow cytometric analysis (reference value: 3176 +/- 398); type: functional
PC-3 [47] = experiment: Induction of apoptosis in human PC3 cells assessed as intracellular ROS levels by measuring fluoresence intensity at 30 uM after 24 hrs by DCFH-DA staining-based flow cytometric analysis (reference value: 3176 +/- 398); type: functional
HCT-116 [48] = experiment: Potency index, ratio of compound IC50 to dehydrozingerone IC50 for antiproliferative activity against human HCT116 cells; type: functional
M14 [49] = experiment: Antiproliferative activity against human M14 cells after 72 hrs by MTT assay; type: functional, cell-based; conditions: M14, 72 h

Work on `CC(=O)/C=C/c1nc(C)c(O)c2c1COC(C)(C)OC2` yielded an IC50 (MCF7 [1]) of 27 µM and an IC50 (HEK293) of 38 µM.

With `O=c1c(O)c(-c2ccc(O)c(O)c2)oc2cc(O)cc(O)c12` the Activity [2] was “Active”.

For `CC(=O)/C=C/c1cnc(C)c2c1COC1(CCCCC1)O2`, the Activity (PC-3 [3]) was 29%, the IC50 (A498 [4]) was 6.5 µM and the IC50 (MCF7 [1]) was 1.1 µM. The IC50 (NCI-H322M [5]) was 4.6 µM, the inhibition at 10 µM (PC-3 [6]) was 47% and the “Ratio IC50” value (MCF7 [7]) was 7 - 211. For the same compound, the “Ratio IC50” value (M14 [8]) was 7 - 211, the IC50 [9] was 15.6 µM and the Activity (PC-3 [10]) was 16%. The IC50 (OVCAR-4 [11]) was 19 µM, the IC50 (PC-3 [12]) was 5.5 µM and the “Ratio IC50” value (A498 [13]) was 7 - 211. For the same compound, the selectivity ratio [14] was 14.2, the “Ratio IC50” value (OVCAR-4 [15]) was 7 - 211 and the Activity (PC-3 [16]) was 52%. The “Ratio IC50” value (HCT-15 [17]) was 7 - 211, the IC50 (SNB-19 [18]) was 4.7 µM and the Activity (PC-3 [19]) was 3%. It also gave an Activity (PC-3 [20]) of 17%, a viability at 30 µM (PC-3 [21]) of 39% and an Activity (PC-3 [22]) of 18%. The “Ratio IC50” value (NCI-H322M [23]) was 7 - 211, the Flu intensity (PC-3 [24]) was 10524 and the Activity (PC-3 [25]) was 17%. For the same compound, the inhibition at 10 µM (PC-3 [26]) was 25%, the selectivity ratio [27] was 7 to 211 and the “Ratio IC50” value (MDA-MB-231 [28]) was 7 - 211. For the same compound, the viability at 10 µM (PC-3 [29]) was 63%, the Activity (PC-3 [30]) was 6% and the Flu intensity (PC-3 [31]) was 9999. The Activity (PC-3 [32]) was 61%, the inhibition at 2 µM (PC-3 [33]) was 27% and the Flu intensity (PC-3 [34]) was 3680. It also gave an IC50 (HEK293) of 16 µM, an Activity (PC-3 [35]) of 3% and an IC50 (HCT-15 [36]) of 1.5 µM. For the same compound, the IC50 (HCT-116 [37]) was 2.8 µM, the IC50 (MDA-MB-231 [38]) was 1.8 µM and the Activity [2] was “inactive”. For the same compound, the “Ratio IC50” value (SNB-19 [39]) was 7 - 211, the Activity (PC-3 [40]) was 52% and the “Ratio IC50” value (PC-3 [41]) was 7 - 211. For the same compound, the Activity (PC-3 [42]) was 19%, the inhibition at 0.2 µM (PC-3 [43]) was 11% and the Activity (PC-3 [44]) was “inactive”. For the same compound, the Flu intensity (PC-3 [45]) was 7587, the Flu intensity (PC-3 [46]) was 4486 and the Flu intensity (PC-3 [47]) was 3085. The “Ratio IC50” value (HCT-116 [48]) was 7 - 211 and the IC50 (M14 [49]) was 2.6 µM.

In the case of `CC(=O)/C=C/c1cnc(C)c(O)c1CO`, the IC50 (MCF7 [1]) is reported as 398 µM and the IC50 (HEK293) is reported as 121 µM.

For `CC(=O)/C=C/c1cnc(C)c2c1COC(C)(C)O2`, the IC50 (MCF7 [1]) was 6.6 µM and the IC50 (HEK293) was 17 µM.

`CCCC1OCc2c(/C=C/C(C)=O)nc(C)c(O)c2CO1` (stereo unspecified) showed an IC50 (MCF7 [1]) of 4.6 µM and an IC50 (HEK293) of 13 µM.

In the case of `COc1cc(/C=C/C(=O)CC(=O)/C=C/c2ccc(O)c(OC)c2)ccc1O`, the Activity [2] is reported as “Active”.

In the case of `COc1cccc2c1C(=O)c1c(O)c3c(c(O)c1C2=O)C[C@@](O)(C(=O)CO)C[C@@H]3O[C@H]1C[C@H](N)[C@H](O)[C@H](C)O1` [DOXORUBICIN], the IC50 (A498 [4]) is reported as 6.1 µM, the IC50 (NCI-H322M [5]) is reported as 29 µM and the IC50 [9] is reported as 2.2 µM. The IC50 (OVCAR-4 [11]) was 0.15 µM, the IC50 (PC-3 [12]) was 0.23 µM and the IC50 (SNB-19 [18]) was 0.15 µM. It also gave an IC50 (HEK293) of 1.2 µM, an IC50 (HCT-15 [36]) of 2.2 µM and an IC50 (HCT-116 [37]) of 0.4 µM. It also gave an IC50 (MDA-MB-231 [38]) of 0.3 µM and an IC50 (M14 [49]) of 3.4 µM.
